Data as given in ChEMBL document CHEMBL4339224, “Identification of a Strigoterpenoid with Dual Nrf2 and Nf-κB Modulatory Activity” (ACS Med Chem Lett, 2019).
Calls of active or inactive are those of the source. No cut-off for these calls is given here.

Legend:
[1] = Inhibition of TNFalpha-induced NFkappaB (unknown origin) expressed in mouse NIH3T3-KBF-Luc cells pre-incubated for 15 mins before TNFalpha stimulation for 6 hrs by luciferase reporter gene assay; type: cell-based, Homo sapiens
[2] = target: T1, Nuclear factor erythroid 2-related factor 2 (Homo sapiens, UniProt Q16236); assay: Activation of Nrf2 in human HaCaT-ARE-Luc cells expressing Nqo1 ARE-Luc reporter plasmid incubated for 6 hrs by luciferase reporter gene assay; type: cell-based
T1 sequence (Q16236 whole entry): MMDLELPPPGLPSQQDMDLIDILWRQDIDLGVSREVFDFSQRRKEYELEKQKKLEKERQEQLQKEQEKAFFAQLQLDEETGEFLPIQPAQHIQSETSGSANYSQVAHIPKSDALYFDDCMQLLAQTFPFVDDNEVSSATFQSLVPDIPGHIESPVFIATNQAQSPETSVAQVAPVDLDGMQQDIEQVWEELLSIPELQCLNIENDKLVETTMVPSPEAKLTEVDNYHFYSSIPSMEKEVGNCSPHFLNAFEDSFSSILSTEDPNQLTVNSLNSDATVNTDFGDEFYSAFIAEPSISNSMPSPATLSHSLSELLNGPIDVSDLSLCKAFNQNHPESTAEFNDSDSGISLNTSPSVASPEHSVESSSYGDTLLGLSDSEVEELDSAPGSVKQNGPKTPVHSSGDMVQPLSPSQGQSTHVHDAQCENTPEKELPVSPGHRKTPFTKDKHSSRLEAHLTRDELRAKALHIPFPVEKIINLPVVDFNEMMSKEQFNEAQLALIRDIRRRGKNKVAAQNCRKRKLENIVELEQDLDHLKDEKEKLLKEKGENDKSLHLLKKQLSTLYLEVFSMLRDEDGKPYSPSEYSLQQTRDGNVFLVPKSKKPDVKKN

Homo sapiens = species on record: Homo sapiens; assay: Inhibition of TNFalpha-induced NFkappaB (unknown origin) canonical pathway expressed in mouse NIH3T3-KBF-Luc cells assessed as inhibition of IkappaB-alpha phosphorylation pre-incubated for 15 mins before TNFalpha stimulation for 6 hrs by Western blot analysis; type: cell-based
[3] = target: Transcription factor p65 (Homo sapiens) (UniProt Q04206); assay: Inhibition of TNFalpha-induced NFkappaB (unknown origin) canonical pathway expressed in mouse NIH3T3-KBF-Luc cells assessed as inhibition of p65 phosphorylation pre-incubated for 15 mins before TNFalpha stimulation for 6 hrs by Western blot analysis; type: cell-based
Chain of Transcription factor p65 (Homo sapiens) (Q04206 whole entry): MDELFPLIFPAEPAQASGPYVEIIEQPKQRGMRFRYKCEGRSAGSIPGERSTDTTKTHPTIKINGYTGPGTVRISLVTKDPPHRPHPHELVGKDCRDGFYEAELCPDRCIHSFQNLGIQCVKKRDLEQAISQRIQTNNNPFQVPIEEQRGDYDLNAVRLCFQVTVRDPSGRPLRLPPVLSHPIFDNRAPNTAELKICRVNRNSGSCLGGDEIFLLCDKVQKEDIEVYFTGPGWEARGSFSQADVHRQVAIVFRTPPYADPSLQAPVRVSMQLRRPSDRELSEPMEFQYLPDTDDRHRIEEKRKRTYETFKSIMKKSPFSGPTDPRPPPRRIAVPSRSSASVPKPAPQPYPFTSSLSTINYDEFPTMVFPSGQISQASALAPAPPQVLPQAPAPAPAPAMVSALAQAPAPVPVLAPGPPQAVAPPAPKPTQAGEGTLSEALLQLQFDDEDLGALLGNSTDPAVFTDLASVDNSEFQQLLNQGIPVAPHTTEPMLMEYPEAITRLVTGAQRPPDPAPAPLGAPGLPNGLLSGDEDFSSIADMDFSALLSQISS

HaCaT [4] = assay: Induction of ROS production in human HaCaT cells at 10 uM incubated for 3 hrs by DCFH-DA staining based fluorimetry; type: functional, cell-based
[5] = target: T2, Nuclear factor erythroid 2-related factor 2 (Homo sapiens) (UniProt Q16236); assay: Activation of Nrf2 in human HaCaT-ARE-Luc cells expressing Nqo1 ARE-Luc reporter plasmid at 0.1 to 50 uM in presence of 15 mM NAC incubated for 6 hrs by luciferase reporter gene assay; type: cell-based
T2 sequence (whole entry): T1 sequence (Q16236 whole entry)

HaCaT [6] = assay: Induction of ROS production in human HaCaT cells at 400 uM incubated for 3 hrs by DCFH-DA staining based fluorimetry; type: functional, cell-based

SMILES	IC50 [1] [µM]	EC50 [2] [µM]	further results
COC(=O)[C@]12CC[C@@H](C)[C@H](C)[C@H]1C1=CC[C@@H]3[C@@]4(C)C/C(=C\OC5C=C(C)C(=O)O5)C(=O)C(C)(C)[C@@H]4CC[C@@]3(C)[C@]1(C)CC2 (stereo partly drawn)	> 50	> 50	inhibition (Homo sapiens): inactive; inhibition [3]: inactive
CC1=CC(O/C=C2\C[C@]3(C)[C@H]4CC=C5[C@@H]6[C@@H](C)[C@H](C)CC[C@]6(C)CC[C@@]5(C)[C@]4(C)CC[C@H]3C(C)(C)C2=O)OC1=O (stereo partly drawn)	> 50	> 50	
C=C(C)[C@@H]1CC[C@]2(C)CC[C@]3(C)[C@H](CC[C@@H]4[C@@]5(C)C/C(=C\OC6C=C(C)C(=O)O6)C(=O)C(C)(C)[C@@H]5CC[C@]43C)[C@@H]12 (stereo partly drawn)	> 50	> 50	
COC(=O)[C@@]1(C)CC[C@]2(C)CC[C@]3(C)C(=CC(=O)[C@@H]4[C@@]5(C)C/C(=C\OC6C=C(C)C(=O)O6)C(=O)C(C)(C)[C@@H]5CC[C@]43C)[C@@H]2C1 (stereo partly drawn)	> 50	> 50	
CC1=CC(O/C=C2\C[C@]3(C)C(COc4ccc5ccc(=O)oc5c4)[C@](C)(O)CC[C@H]3C(C)(C)C2=O)OC1=O (stereo partly drawn)	7.9	1.2	Activity (HaCaT [4]): inactive; Activity [5]: inactive
COC(=O)[C@]12CCC(C)(C)C[C@H]1C1=CC[C@@H]3[C@@]4(C)C/C(=C\OC5C=C(C)C(=O)O5)C(=O)C(C)(C)[C@@H]4CC[C@@]3(C)[C@]1(C)CC2 (stereo partly drawn)	> 50	> 50	
CC1=CC(O/C=C2\C[C@]3(C)[C@H]4CC=C5[C@@H]6CC(C)(C)CC[C@]6(C)CC[C@@]5(C)[C@]4(C)CC[C@H]3C(C)(C)C2=O)OC1=O (stereo partly drawn)	> 50	> 50	
C=C(C)[C@@H]1CC[C@]2(C(=O)OC)CC[C@]3(C)[C@H](CC[C@@H]4[C@@]5(C)C/C(=C\OC6C=C(C)C(=O)O6)C(=O)C(C)(C)[C@@H]5CC[C@]43C)[C@@H]12 (stereo partly drawn)	> 50	> 50	
CC(C)(C)OO			Activity (HaCaT [6]): Active

More lines, main results first:

IC50 [1] [µM]	EC50 [2] [µM]	SMILES	further results
> 50	15.5	CC1=CC(OCC2=CC3CC(C2)C3(C)C)OC1=O (stereo not drawn)	
> 50	26.3	CC1=CC(OC2C[C@H](C)CC[C@H]2C(C)C)OC1=O (stereo partly drawn)	
> 50	1.6	C=C(C)[C@@H]1CC=C(C)C(=O)/C1=C/OC1C=C(C)C(=O)O1 (stereo partly drawn)	
> 50	16.3	CC1=CC(OCc2ccc(C(C)C)cc2)OC1=O (stereo not drawn)	
> 50	16.2	CC(C)=CCC/C(C)=C/COC1C=C(C)C(=O)O1 (stereo not drawn)	
> 50	5	CC1=CC(O/C=C2/C(=O)C(=C(C)C)CC[C@H]2C)OC1=O (stereo partly drawn)	
> 50	29.5	CC(C)=CCOC1C=C(C)C(=O)O1 (stereo not drawn)	
	1.2	CC1=C[C@H](O/C=C2/C(=O)O[C@@H]3C4=C(C[C@H]23)[C@@H](O)CCC4(C)C)OC1=O [STRIGOL]	
> 50	1.9	CC1=CC(O/C=C2/C(=O)C(C)[C@H]3C[C@@]23C(C)C)OC1=O (stereo partly drawn)	
> 50	22.8	CC(C)=CCCC(C)CCOC1C=C(C)C(=O)O1 (stereo not drawn)	
	2.5	COC(=O)/C(C)=C/CC/C(C)=C/CC/C(C)=C/CC[C@@H]1[C@@]2(C)C/C(=C\OC3C=C(C)C(=O)O3)C(=O)C(C)(C)C2CC[C@@]1(C)O (stereo partly drawn)	
> 50	17.8	CC1=CC(O/C=C2/C(=O)[C@H](C(C)C)CC[C@H]2C)OC1=O (stereo partly drawn)	
